In patent publication US10993983B2, “Cyclic peptide epitopes and small-molecule mimics for inducing autophagy” (TRUSTEES OF TUFTS COLLEGE, priority 2016, dated 2021):
Values joined by “and” are separate entries in the source; they are usually repeats but may differ in a detail not shown here. Equal values may be shown once. Marks after values point to notes of the source that are not given here.

Legend:
Assay type in all cases: cell-based
p62 = p62 degradation assay (p62/actin immunoblot); design: key: −: activity not reported; 0: decreased vs. WT; +: similar to WT; ++: modest increase vs. WT; +++: significant increase vs. WT; settings: for Activity (μM) 10, p62/actin assay activity: 10 μM; for Activity (μM) 20, p62/actin assay activity: 20 μM; for Activity (μM) 30, p62/actin assay activity: 30 μM; for Activity (μM) 50, p62/actin assay activity: 50 μM; for Activity (μM) 100, p62/actin assay activity: 100 μM; for Activity (μM) 10, starred cell, p62/actin assay activity: Table 8, 10 μM marked * (footnote: data taken at 20 instead of 30 μM)
LC3 = LC3 marker assay (LC3-I to LC3-II conversion immunoblot); design: key: −: activity not reported; 0: decreased vs. WT; +: similar to WT; ++: modest increase vs. WT; +++: significant increase vs. WT; settings: for Activity (μM) 10, LC3 assay activity: 10 μM; for Activity (μM) 20, LC3 assay activity: 20 μM; for Activity (μM) 30, LC3 assay activity: 30 μM; for Activity (μM) 50, LC3 assay activity: 50 μM; for Activity (μM) 100, LC3 assay activity: 100 μM; for Activity (μM) 10, starred cell, LC3 assay activity: Table 8, 10 μM marked * (footnote: data taken at 20 instead of 30 μM)
HeLa cells = assay: Autophagy induction judged by p62 and LC3 immunoblots together; design: key to Activity compared to wild-type WT / Activity (μM) 10, single symbol / Activity (μM) 30, single symbol / Activity (μM) 50, single symbol / Activity (μM) 100, single symbol: −: activity not reported; 0: decreased vs. WT; +: similar to WT; ++: modest increase vs. WT; +++: significant increase vs. WT; settings: for Activity (μM) 10, single symbol: 10 μM; for Activity (μM) 30, single symbol: 30 μM; for Activity (μM) 50, single symbol: 50 μM; for Activity (μM) 100, single symbol: 100 μM; for Activity compared to wild-type WT: Tat-linked linear peptides, summation of p62 degradation assay and LC3 marker assay
Description: This 10-mer sequence was substituted with various thiol-containing amino acids at various positions, and then cross-linked with various linkers as described above (FIG. 5, a and FIG. 6).
Cells were treated with peptide in OPTI-MEM (Thermo Scientific) acidified with 0.15% (v/v) 6N HCl for 3 hour. Cells were rinsed with Dulbecco's phosphate buffered saline (PBS) and lysed in lysis buffer (20 mM HEPES, 150 mM NaCl, 1 mM EDTA, 1% Triton X-100, protease inhibitor cocktail (Roche) on ice for 1 hour. Cell lysates were centrifuged at 16,000 g for 10 min at 4° C. and analyzed by SDS-PAGE and transferred to PVDF membranes. The membranes were blocked 5% non-fat dry milk (NFDM) in PBST (PBS+0.05% Tween-20) for 1 hour, then incubated overnight at 4° C. with primary antibody in 5% NFDM in PBST. The blots were washed with PBST and incubated with HRP-conjugated secondary antibodies diluted in 5% NFDM in PBST for 1 hour at room temperature. Membranes were washed with PBST and visualized with SuperSignal West Pico Chemiluminescent Substrate (Thermo Scientific). Semi-quantitative results were obtained by noting the lowest concentration at which both p62 degradation and LC3-I to LC3-II conversion were observed.
(SEQ ID NO: 16)-Sequence. […] The N-terminus was capped with an acetyl group while the C terminus was capped with a —C(O)—NH2 group. The activity reported is a summation of results from both the p62 degradation assay and the LC3 marker assay.

[1] = Table 3, control vehicle, first symbol of cell
[2] = Table 4, control inactive Tat-Beclin mutant, first symbol
[3] = Table 3, control vehicle, first symbol
[4] = Table 8, control compound T25, first symbol
[5] = Table 3, control vehicle, second symbol of cell
[6] = Table 4, control inactive Tat-Beclin mutant, second symbol
[7] = Table 3, control vehicle, second symbol
[8] = Table 8, control compound T25, second symbol
[9] = Table 4, starred rows (asterisk not explained)

VCNACFHIWH [Compound 3]
Activity (μM) 10, p62/actin assay activity (p62; [1]): 0/0 | Activity (μM) 10, p62/actin assay activity (p62; [2]): 0 | Activity (μM) 20, p62/actin assay activity (p62; [3]): + | Activity (μM) 30, p62/actin assay activity (p62; [2]): 0 | Activity (μM) 30, p62/actin assay activity (p62; [4]): 0/0 | Activity (μM) 50, p62/actin assay activity (p62; [3]): ++ | Activity (μM) 50, p62/actin assay activity (p62; [2]): 0 | Activity (μM) 50, p62/actin assay activity (p62; [4]): + and +++/+++ | Activity (μM) 100, p62/actin assay activity (p62; [3]): +++/+++ | Activity (μM) 100, p62/actin assay activity (p62; [2]): 0/0 | Activity (μM) 100, p62/actin assay activity (p62; [4]): +++/+++ | Activity (μM) 10, starred cell, p62/actin assay activity (p62; first symbol): 0/0* | Activity (μM) 10, LC3 assay activity (LC3; [5]): 0/0 | Activity (μM) 10, LC3 assay activity (LC3; [6]): ++ | Activity (μM) 20, LC3 assay activity (LC3; [7]): +++ | Activity (μM) 30, LC3 assay activity (LC3; [6]): +++ | Activity (μM) 30, LC3 assay activity (LC3; [8]): 0/0 | Activity (μM) 50, LC3 assay activity (LC3; [7]): +++ | Activity (μM) 50, LC3 assay activity (LC3; [6]): + | Activity (μM) 50, LC3 assay activity (LC3; [8]): 0 and +++/+++ | Activity (μM) 100, LC3 assay activity (LC3; [7]): +++/+++ | Activity (μM) 100, LC3 assay activity (LC3; [6]): 0/0 | Activity (μM) 100, LC3 assay activity (LC3; [8]): +++/+++ | Activity (μM) 10, starred cell, LC3 assay activity (LC3; second symbol): 0/0* | Activity (μM) 10, single symbol (HeLa cells; [9]): 0 | Activity (μM) 30, single symbol (HeLa cells; [9]): 0 | Activity (μM) 50, single symbol (HeLa cells; [9]): 0 | Activity (μM) 100, single symbol (HeLa cells; [9]): 0

VCNATCHIWH [Compound 1]
Activity (μM) 10, p62/actin assay activity (p62; [1]): 0/0 | Activity (μM) 10, p62/actin assay activity (p62; [2]): 0/0 | Activity (μM) 20, p62/actin assay activity (p62; [3]): 0/0 | Activity (μM) 30, p62/actin assay activity (p62; [2]): 0 | Activity (μM) 30, p62/actin assay activity (p62; [4]): 0/0 and ++ | Activity (μM) 50, p62/actin assay activity (p62; [3]): 0/0 | Activity (μM) 50, p62/actin assay activity (p62; [2]): 0 | Activity (μM) 50, p62/actin assay activity (p62; [4]): 0/0 and +++/+++ | Activity (μM) 100, p62/actin assay activity (p62; [3]): +++ | Activity (μM) 100, p62/actin assay activity (p62; [2]): 0 | Activity (μM) 100, p62/actin assay activity (p62; [4]): +++ | Activity (μM) 10, starred cell, p62/actin assay activity (p62; first symbol): 0/0* and 0 | Activity (μM) 10, LC3 assay activity (LC3; [5]): 0/0 | Activity (μM) 10, LC3 assay activity (LC3; [6]): 0/0 | Activity (μM) 20, LC3 assay activity (LC3; [7]): 0/0 | Activity (μM) 30, LC3 assay activity (LC3; [6]): + | Activity (μM) 30, LC3 assay activity (LC3; [8]): 0/0 and +++ | Activity (μM) 50, LC3 assay activity (LC3; [7]): 0/0 | Activity (μM) 50, LC3 assay activity (LC3; [6]): ++ | Activity (μM) 50, LC3 assay activity (LC3; [8]): 0/0 and +++/+++ | Activity (μM) 100, LC3 assay activity (LC3; [7]): + | Activity (μM) 100, LC3 assay activity (LC3; [8]): + | Activity (μM) 10, starred cell, LC3 assay activity (LC3; second symbol): 0/0* and + | Activity (μM) 10, single symbol (HeLa cells; [9]): 0 | Activity (μM) 30, single symbol (HeLa cells; [9]): 0 | Activity (μM) 50, single symbol (HeLa cells; [9]): 0 | Activity (μM) 100, single symbol (HeLa cells; [9]): 0

VFNATFEIFHD [Compound T9, Tat-linked linear peptide]
Activity compared to wild-type WT (HeLa cells): +

VFNATFEIWHE [Compound T11, Tat-linked linear peptide]
Activity compared to wild-type WT (HeLa cells): +

VFNATFEIWYD [Compound T10, Tat-linked linear peptide]
Activity compared to wild-type WT (HeLa cells): +

VFNATFELWHD [Compound T8, Tat-linked linear peptide]
Activity compared to wild-type WT (HeLa cells): ++

VFNATFEMWHD [Compound T16, Tat-linked linear peptide]
Activity compared to wild-type WT (HeLa cells): +

VFNATFERWHD [Compound T20, Tat-linked linear peptide]
Activity compared to wild-type WT (HeLa cells): +

VFNATFEVWHD [Compound T14, Tat-linked linear peptide]
Activity compared to wild-type WT (HeLa cells): +

VFNATFEYWHD [Compound T19, Tat-linked linear peptide]
Activity compared to wild-type WT (HeLa cells): +

VFNATWEIWHD [Compound T6, Tat-linked linear peptide]
Activity compared to wild-type WT (HeLa cells): 0

VLNATFEIWHD [Compound T15, Tat-linked linear peptide]
Activity compared to wild-type WT (HeLa cells): +

VWAATFHIWHD [Compound T36, Tat-linked linear peptide]
Activity compared to wild-type WT (HeLa cells): +

VWNAAFHIWHD [Compound T37, Tat-linked linear peptide]
Activity compared to wild-type WT (HeLa cells): ++

VWNATFAIWHD [Compound T39, Tat-linked linear peptide]
Activity compared to wild-type WT (HeLa cells): +++

VWNATFEIWHD [Compound T2, Tat-linked linear peptide]
Activity compared to wild-type WT (HeLa cells): ++

VWNATFELWHD [Compound T12, Tat-linked linear peptide]
Activity compared to wild-type WT (HeLa cells): +

VWNATFHIAHD [Compound T41, Tat-linked linear peptide]
Activity compared to wild-type WT (HeLa cells): +

VWNATFHIWAD [Compound T42, Tat-linked linear peptide]
Activity compared to wild-type WT (HeLa cells): +++

VWNATFHIWH [Compound T33, Tat-linked linear peptide]
Activity compared to wild-type WT (HeLa cells): +++

VWNATFHIWHD [Compound T17, Tat-linked linear peptide]
Activity (μM) 10, single symbol (HeLa cells; Table 6, control DMSO, one symbol only): + | Activity compared to wild-type WT (HeLa cells): +++

VWNATFHYWHD [Compound T26, Tat-linked linear peptide]
Activity compared to wild-type WT (HeLa cells): +++

VYNATFEIWHD [Compound T13, Tat-linked linear peptide]
Activity compared to wild-type WT (HeLa cells): 0

WNATFHIW [Compound T35, Tat-linked linear peptide]
Activity compared to wild-type WT (HeLa cells): ++

WNATFHIWH [Compound T32, Tat-linked linear peptide]
Activity compared to wild-type WT (HeLa cells): ++

WNATFHIWHD [Compound T34, Tat-linked linear peptide]
Activity compared to wild-type WT (HeLa cells): +++
